Measurements as given in patent US8420648B2, “Polymorphs of brimonidine pamoate” (Bausch & Lomb Incorporated, priority 2008, dated 2013).
Like-named read-outs stand apart in the source and are kept apart here.

How the values were obtained:
[1] = cited from earlier work
[2] = Competitive slurries of brimonidine hemi-pamoate forms; format: physicochemical; details: for XRPD (1 week): form: competitive slurry of Forms A, RT; for relative stability (conclusion from competitive slurries): competitive slurries in THF or water, one week
[3] = Procedure: After one week of exposure, the samples were analyzed by XRPD to check for form conversion and HPLC analysis to check for potential degradation. […] Ambient • Detection: 248 nm • Diluent: MeOH • Injection Volume: 5 μl
[4] = for XRPD pattern of the solids following moisture sorption analysis: after moisture sorption analysis; for hygroscopicity (in words) / observation upon desorption: moisture sorption analysis; for observation upon desorption: desorption scan; for water adsorbed at 60% RH / water adsorbed at 90% RH: 25° C.
Procedure: Approximately 10 mg of the sample was analyzed in a Pyrex bulb. Each scan utilized a step size of 10% RH and a maximum equilibration time of four hours per point. The sample was dried for one hour at 80° C. following the desorption scan to obtain the dry sample weight and then it was analyzed by XRPD.

[5] = ambient conditions
[6] = 88% RH; for Visual inspection (2 week): 2 weeks, inspected for deliquescence
Procedure: This solution results in 88% RH environment. After two weeks of storage the crystalline form was determined by XRPD and solid inspected for deliquescence.

[7] = ambient
Text: Following one week intervals, samples were isolated by centrifugation and dried in vacuo at ambient temperature overnight and analyzed by XRPD to check for polymorphic form conversion.

[8] = stored uncapped at 60° C., 1 week
[9] = 60° C., sample exposed for 6 days (footnote)

Compound	XRPD (1 week): form ([2]; B, C and D in THF (1.0 mL))	XRPD (1 week): form ([2]; C, D and E in water (1.0 mL))	solid state stability after one week of storage at 60° C. (in words, HPLC and XRPD) ([3]; 60° C., one week)	HPLC (% purity) after thermal stress [3, 8]	XRPD (1 week): crystallinity [3, 8]	XRPD (1 week): form [3, 8]	XRPD pattern of the solids following moisture sorption analysis [4]	hygroscopicity (in words) [4]	observation upon desorption [4]	water adsorbed at 60% RH ([4]; moisture sorption)	water adsorbed at 90% RH ([4]; moisture sorption)	form by XRPD after overnight slurry in water [5]	Visual inspection (2 week) [6]	also measured
Brc1c(NC2=NCCN2)ccc2nccnc12 [brimonidine freebase, 5-bromo-6-(2-imidazolidinylideneamino)quinoxaline]														solubility in water (in words) ([1]; water): negligible
Brc1c(NC2=NCCN2)ccc2nccnc12.Brc1c(NC2=NCCN2)ccc2nccnc12.O=C(O)c1cc2ccccc2c(Cc2c(O)c(C(=O)O)cc3ccccc23)c1O [Form D, brimonidine hemi-pamoate]	Form E	Form F	no significant degradation or signs of form conversion	96.7%	Crystalline	(Form D)	consistent with Form D	slightly hygroscopic	no hysteresis or indication of hydrate formation	1.8 wt %	2.6 wt %	mixture of Forms B and F		
Brc1c(NC2=NCCN2)ccc2nccnc12.Brc1c(NC2=NCCN2)ccc2nccnc12.O=C(O)c1cc2ccccc2c(Cc2c(O)c(C(=O)O)cc3ccccc23)c1O [Form E, brimonidine hemi-pamoate]		Form F	no significant degradation or signs of form conversion				consistent with Form E	slightly hygroscopic	no hysteresis or indication of hydrate formation	3.1 wt %	4.2 wt %	mixture of Forms B and F		relative stability (conclusion from competitive slurries) [2]: most stable anhydrate form; HPLC (% purity) after thermal stress [3, 9]: 100.0%; XRPD (1 week): crystallinity [3, 9]: Semi-cryst.; XRPD (1 week): form [3, 9]: (Form E)
brimonidine tartrate														solubility in a pH 7.0 phosphate buffer ([1]; pH 7.0 phosphate buffer): 2.4 mg/mL; solubility in water ([1]; water): 34 mg/mL
Brc1c(NC2=NCCN2)ccc2nccnc12.Brc1c(NC2=NCCN2)ccc2nccnc12.O=C(O)c1cc2ccccc2c(Cc2c(O)c(C(=O)O)cc3ccccc23)c1O [Form B, brimonidine hemi-pamoate]	Form E			100.0%	Crystalline	(Form B)	consistent with Form B			5.4 wt %	5.8 wt %			solid state stability after one week of storage at 60° C. (in words, HPLC and XRPD) [3]: no degradation or signs of form conversion; water content stabilized between 20-90% RH [4]: 5-6 wt %
Brc1c(NC2=NCCN2)ccc2nccnc12.Brc1c(NC2=NCCN2)ccc2nccnc12.O=C(O)c1cc2ccccc2c(Cc2c(O)c(C(=O)O)cc3ccccc23)c1O [Form A, brimonidine hemi-pamoate]	Form E	Form F	stable by XRPD and HPLC	100.0%	Crystalline	(Form A)	consistent with the Form A starting material	slightly hygroscopic	no hysteresis or indication of hydrate formation	2.2 wt %	2.5 wt %	Form B	No deli-	stability after two weeks of storage at elevated relative humidity (in words) [6]: no sign of deliquescence or change in crystalline form; Form by XRPD (1 week) ([7]; slurry in THF 1 mL, 1 week): Form E; Form by XRPD (3 weeks) ([7]; slurry in water (magnetic stirring) 1 mL, 3 weeks): Form B
Brc1c(NC2=NCCN2)ccc2nccnc12.Brc1c(NC2=NCCN2)ccc2nccnc12.O=C(O)c1cc2ccccc2c(Cc2c(O)c(C(=O)O)cc3ccccc23)c1O [Form F, brimonidine hemi-pamoate]							consistent with Form F					mixture of Forms B and F	No deli-	relative stability (conclusion from competitive slurries) [2]: more stable in water than Forms A, C, D and E; stability after two weeks of storage at elevated relative humidity (in words) [6]: no sign of deliquescence or change in crystalline form; water adsorbed at 40% RH ([4]; moisture sorption, 40% RH): approximately 1.8 molar equivalent
Brc1c(NC2=NCCN2)ccc2nccnc12.Brc1c(NC2=NCCN2)ccc2nccnc12.O=C(O)c1cc2ccccc2c(Cc2c(O)c(C(=O)O)cc3ccccc23)c1O [Form C, brimonidine hemi-pamoate]	Form E	Form F	no significant degradation or signs of form conversion	97.9%	Semi-cryst.	(Form C)	consistent with Form C	moderately hygroscopic	no hysteresis or indication of hydrate formation	4.6 wt %	13.0 wt %	mixture of Forms B and F	No deli-	
